Assay results from patent US20120245343A1, “ARGININE DERIVATIVES OR SALTS THEREOF EXHIBITING THE EFFECTS OF IMPROVING SEXUAL FUNCTION, COMPOSITION FOR IMPROVING SEXUAL FUNCTION COMPRISING SAME, AND METHOD FOR PREPARING SAME” (priority 2009, published 2012).

Legend:
[1] = tested on: arginase; details: for Km: read-out: Km of arginase; for Km / Vmax of arginase: substrate of arginase, 55° C., 10 minutes, pH 10.0
Protocol: 20 mU arginase was dissolved in 150 μL of 0.1M carbonate-bicarbonate buffer (pH 10.0). […] After that, 750 μL of acetic acid was added to the reaction mixture so as to stop the reaction. Then, 250 μL of ninhydrin solution was added to the mixture and was reacted at 100° C. for 1 hour. The reaction mixture was cooled and the absorbance was measured at 515 nm using ELISA reader.
A standard curve was created by using 0.01-10 μM of L-ornithine, and then the arginase activity was calculated and represented from the ornithine standard curve.

[2] = tested on: eNOS; assay: Expression of eNOS in penile tissues by immunoblotting; format: in vivo; details: male Sprague-Dawley rats, orally administered for 7 days twice a day; AFG 200 and 400 mg/kg/day, BGE 400 mg/kg/day; vs control group; FIG. 8
Protocol: (§1) 8 weeks old male Sprague-Dawley rats were obtained from Orient Co., Ltd. (Korea) and used as exprimental animals. A breeding cage was conditioned with artificial lighting for 12 hours (8:00 a.m. to 8:00 p.m) and maintained at 20±3° C. The rats were provided with purified water and fed with pellet diet (Samyang diet, Korea). Food and water were not limited and supplied to the rats at a certain time of 9:00 a.m. to 10:00 a.m. every day.
(§2) 8 weeks old male Sprague-Dawley rats were allowed to be adapted to the environment of the breeding cage. […] The amount of dietary intake was measured at a certain time of 9:00 a.m. to 10:00 a.m. every day. […]
(§3) After quickly pouring liquid nitrogen into the tissues and pulverizing the tissues, proteins were extracted by RIPA lysis buffer (pH 7.4) containing 50 mM Tris-HCl, 1% NP-40, 0.25% sodium deoxycholate, 150 mM NaCl, 1 mM EDTA, 1 mM PMSF, 1 mM sodium orthovanadate, 1 mM NaF, 1 mg/mL aprotinin, 1 mg/mL leupeptin and 1 mg/mL pepstatin. After quantifying the extracted proteins using Bio-Rad protein assay kit, 30 μg and 40 μg of proteins were separated by SDS-PAGE using 8% acrylamide gel for 2 hours, and transferred to nitrocellulose membrane with being blocked by 2% BSA. […]

[3] = tested on: activated eNOS; assay: Expression of activated eNOS in endothelial cells; format: cell-based; details: immunoblotting, FIG. 11
Protocol: Endothelial cells (BAECs) previously treated with the samples were washed with cold PBS buffer (pH 7.2) twice and then treated with RIPA lysis buffer [50 mM Tris-HCl, 150 mM NaCl, 0.5% sodium deoxycholate, 1% NP 40, 1% phosphatase inhibitor cocktail, 1 mM PMSF] in 150 μL/well to collect cell extracts. The protein content of the collected cell extracts was determined using Bradford assay, and then 25 μg of the protein was separated by using SDS-PAGE and transferred to nitrocellulose membrane. The nitrocellulose membrane was blocked with 1% BSA (Bovine serum albumin) solution at room temperature for 1 hour, and reacted with a primary antibody specific for the target protein at 4° C. for 12 hours. Upon completion of the reaction, the nitrocellulose membrane was washed with TBST (10 mM Tris-HCl, 150 mM NaCl, 0.05% NP 40) several times, and reacted with a secondary antibody binding to HRP (Horse radish peroxidase) at room temperature for 1 hour. After that, the nitrocellulose membrane was washed again with TBST and the target protein was confirmed by using ECL solution. To identify the target protein, luminesent image analyzer (LAS 4000 mini) were used. […] It is possible to produce nitric oxide (NO) when eNOS is phosphorylated to be activated. […]

[4] = tested on: nitric oxide (NO); assay: Measurement of nitric oxide (NO) in penile tissues; format: in vivo; details: male Sprague-Dawley rats, orally administered for 7 days twice a day; AFG 200 and 400 mg/kg/day, BGE 400 mg/kg/day; vs control group; FIG. 9
Protocol: as §1
8 weeks old male Sprague-Dawley rats were allowed to be adapted to the environment of the breeding cage. Depending on their body weight, the rats were divided into 5 groups of control group (saline), Viagra® group (1.7 mg/kg/day), two AFG groups (200 and 400 mg/kg/day) and BGE (conventional red ginseng) group (400 mg/kg/day) and orally administered for 7 days twice a day (in the morning and in the afternoon). The amount of dietary intake was measured at a certain time of 9:00 a.m. to 10:00 a.m. every day. […]
The amount of the produced nitric oxide was measured by a method which slightly modifies methods proposed by Park (J. Ethnopharmacol, 2004) and Knowles (Biochem. J, 1990). […]
For 200 μL of the supernatant, the fluorescence intensity of DAF was measured at 485 nm of excitation wavelength and at 535 nm of emission wavelength using a fluorescence reader (TECAN Trading AG, Switzerland).

[5] = tested on: nNOS; assay: Expression of nNOS in penile tissues by immunoblotting; format: in vivo; details: male Sprague-Dawley rats, orally administered for 7 days twice a day; AFG 200 and 400 mg/kg/day, BGE 400 mg/kg/day; vs control group; FIG. 8
Protocol: as §1, §2, §3

[6] = tested on: cGMP; assay: Measurement of cGMP in penile tissues; format: in vivo; details: male Sprague-Dawley rats, FIG. 10
Protocol: as §1
8 weeks old male Sprague-Dawley rats were allowed to be adapted to the environment of the breeding cage. Depending on their body weight, the rats were divided into 5 groups of control group (saline), Viagra® group (1.7 mg/kg/day), two AFG groups (200 and 400 mg/kg/day) and BGE (conventional red ginseng) group (400 mg/kg/day) and orally administered for 7 days twice a day (in the morning and in the afternoon). The amount of dietary intake was measured at a certain time of 9:00 a.m. to 10:00 a.m. every day.
After the end of feeding period, the rats were fasted for 12 hours and anesthetized with […]. […]
The concentration of cGMP was measured by a method which slightly modifies methods proposed by Park (J. Ethnopharmacol, 2004) and Knowles (Biochem. J, 1990). […]
A standard curve was created by using 0.8-50 pmol/mL of cGMP, and the concentration of cGMP was measured by cGMP ELISA kit (Aassay Designs, Inc., Michigan). […]

SMILES	decomposition rate of arginase as compared with arginine [1]	Km [1] [µM]	Vmax of arginase [1]	expression of eNOS in the penile tissues [2]	expression of the activated eNOS in the endothelial cells (BAECs) [3]	production of nitric oxide (NO) in the penile tissues [4]	expression of nNOS in the penile tissues [5]	concentration of cGMP in the penile tissues ([6]; orally administered for 7 days twice a day, AFG 200 and 400 mg/kg/day, BGE 400 mg/kg/day, Viagra 1.7 mg/kg/day, vs negative control group)	increase of the concentration of cGMP compared with the positive control group of Viagra ([6]; penile tissues)
NC(N)=NCCC[C@H](NC[C@@]1(O)OC[C@@H](O)[C@@H](O[C@@H]2O[C@H](CO)[C@@H](O)[C@H](O)[C@H]2O)[C@@H]1O)C(=O)O [AFG, arginyl-fructosyl-glucose]	very low	129	588 µmol/min	increased	increased	increased	increased	increased	less than the positive control group
N=C(N)NCCC[C@H](N)C(=O)O [Arginine, L-arginine]	–	12	1,000 μmoles/min	–	–	–	–	–	–
